Experimental data: US5154929A, “Percutaneous absorption type preparation and process for preparing the same” (Nitto Denko Corporation, priority 1988, dated 1992)

Assay: Saturated solubility of the drug in the pressure-sensitive adhesive

Compound	Saturated Solubility (in adhesive of Comparative Example 3 (nonylacrylate 75, ethoxyethylacrylate 15, vinyl acetate 10))	Saturated Solubility (in adhesive of Comparative Example 4 (nonylacrylate 60, ethoxyethylacrylate 20, vinyl acetate 20))	Saturated Solubility (in adhesive of Example 3 (nonylacrylate 75, ethoxyethylacrylate 15, vinyl acetate 10))	Saturated Solubility (in adhesive of Comparative Example 5 (2-ethylhexylacrylate 85, N-vinyl-2-pyrrolidone 15))	Saturated Solubility (in adhesive of Comparative Example 6 (2-ethylhexylacrylate 75, N-vinyl-2-pyrrolidone 25))	Saturated Solubility (in adhesive of Example 4 (2-ethylhexylacrylate 85, N-vinyl-2-pyrrolidone 15))
CN1C(=O)CN=C(c2ccccc2F)c2cc([N+](=O)[O-])ccc21 [Flunitrazepam]	3.5%	4%	3.5%	–	–	–
CC(C)NCC(O)COc1cccc2[nH]ccc12 (stereo not drawn) [Pindolol]	–	–	–	7%	6%	7%
